Several values for one entry are separate records, joined by “and”; a condition that tells them apart may be missing. Identical values can stand only once. Toxic doses and inconclusive results are not listed. Rule for the calls: active = survival T/C of 150% or more; inactive = T/C below 125% in these data.
Tested on: CD2F1 mice, L1210 leukemia ip, survival T/C
Assay: NCI In Vivo Anticancer Drug Screen. Data for tumor model L1210 Leukemia (intraperitoneal) in CD2F1 (CDF1) mice
Conditions: higher = longer survival
Outline: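 Ratio T/C, where T is the treated-group value and C the vehicle-dosed control value, from mice implanted with a transplantable tumor.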

[1] = endpoint: mean survival time, dose: 100.0 mg/kg/injection, schedule: Q01DX009 (ip), vehicle: other
[2] = endpoint: mean survival time, dose: 200.0 mg/kg/injection, schedule: Q01DX009 (ip), vehicle: other
[3] = endpoint: mean survival time, dose: 100.0 mg/kg/injection, schedule: Q01DX009 (ip), vehicle: saline with Tween-80
[4] = endpoint: mean survival time, dose: 100.0 mg/kg/injection, schedule: Q04DX003 (ip), vehicle: saline with Tween-80
[5] = endpoint: mean survival time, dose: 200.0 mg/kg/injection, schedule: Q01DX009 (ip), vehicle: saline with Tween-80
[6] = endpoint: mean survival time, dose: 200.0 mg/kg/injection, schedule: Q04DX003 (ip), vehicle: saline with Tween-80
[7] = endpoint: mean survival time, dose: 400.0 mg/kg/injection, schedule: Q01DX009 (ip), vehicle: saline with Tween-80
[8] = endpoint: mean survival time, dose: 100.0 mg/kg/injection, schedule: Q04DX003 (ip), vehicle: saline
[9] = endpoint: mean survival time, dose: 200.0 mg/kg/injection, schedule: Q04DX003 (ip), vehicle: saline
[10] = endpoint: mean survival time, dose: 100.0 mg/kg/injection, schedule: Q01DX001 (ip), vehicle: saline with Tween-80
[11] = endpoint: mean survival time, dose: 200.0 mg/kg/injection, schedule: Q01DX001 (ip), vehicle: saline with Tween-80
[12] = endpoint: mean survival time, dose: 400.0 mg/kg/injection, schedule: Q01DX001 (ip), vehicle: saline with Tween-80
[13] = endpoint: mean survival time, dose: 400.0 mg/kg/injection, schedule: Q04DX003 (ip), vehicle: saline with Tween-80
[14] = endpoint: mean survival time, dose: 100.0 mg/kg/injection, schedule: Q01DX001 (ip), vehicle: Klucel (hydroxypropylcellulose) (HPC)
[15] = endpoint: mean survival time, dose: 200.0 mg/kg/injection, schedule: Q01DX001 (ip), vehicle: Klucel (hydroxypropylcellulose) (HPC)
[16] = endpoint: mean survival time, dose: 400.0 mg/kg/injection, schedule: Q01DX001 (ip), vehicle: Klucel (hydroxypropylcellulose) (HPC)

Measured: T/C

Nc1ccccc1OCCCn1cc(-c2ccc(Cl)c(Cl)c2)c(N)nc1=O
inactive: endpoint: mean survival time, dose: 50.0 mg/kg/injection, schedule: Q01DX009 (ip), vehicle: Klucel (hydroxypropylcellulose) (HPC) 94 % of control | endpoint: mean survival time, dose: 100.0 mg/kg/injection, schedule: Q01DX009 (ip), vehicle: Klucel (hydroxypropylcellulose) (HPC) 101 % of control | endpoint: mean survival time, dose: 200.0 mg/kg/injection, schedule: Q01DX009 (ip), vehicle: Klucel (hydroxypropylcellulose) (HPC) 90 % of control

CCCCCCCCCCCC(=O)CCCC
inactive: [1] 98 % of control | endpoint: mean survival time, dose: 100.0 mg/kg/injection, schedule: Q04DX003 (ip), vehicle: other 102 % of control | [2] 104 % of control | endpoint: mean survival time, dose: 200.0 mg/kg/injection, schedule: Q04DX003 (ip), vehicle: other 91 % of control | endpoint: mean survival time, dose: 400.0 mg/kg/injection, schedule: Q01DX009 (ip), vehicle: other 106 % of control | endpoint: mean survival time, dose: 400.0 mg/kg/injection, schedule: Q04DX003 (ip), vehicle: other 97 % of control

C=CCCCCCCCCCCC(=O)OC
inactive: [3] 106 % of control | [4] 93 % of control | [5] 106 % of control | [6] 94 % of control | [7] 101 % of control

CCOC(=O)C1(C(=O)OCC)COC(C)(C)OC1
inactive: endpoint: mean survival time, dose: 100.0 mg/kg/injection, schedule: Q01DX009 (ip), vehicle: saline 93 % of control | endpoint: mean survival time, dose: 200.0 mg/kg/injection, schedule: Q01DX009 (ip), vehicle: saline 94 % of control | endpoint: mean survival time, dose: 400.0 mg/kg/injection, schedule: Q01DX009 (ip), vehicle: saline 94 % of control

CC(=O)Oc1cccc2c1C(=O)c1c(OC(C)=O)cccc1C2=O
inactive: endpoint: mean survival time, dose: 25.0 mg/kg/injection, schedule: Q01DX009 (ip), vehicle: water 102 % of control | endpoint: mean survival time, dose: 50.0 mg/kg/injection, schedule: Q01DX009 (ip), vehicle: water 93 % of control | endpoint: mean survival time, dose: 100.0 mg/kg/injection, schedule: Q01DX009 (ip), vehicle: water 96 % of control | endpoint: mean survival time, dose: 200.0 mg/kg/injection, schedule: Q01DX009 (ip), vehicle: water 88 % of control

C=C1COC(O)(C2OCOC(C3CC(=O)NC(=O)C3)C2O)C1C (centres undefined)
inactive: endpoint: median survival time, dose: 4.0 micrograms/kg/injection, schedule: Q01DX009 (ip), vehicle: water 103 % of control | endpoint: median survival time, dose: 8.0 micrograms/kg/injection, schedule: Q01DX009 (ip), vehicle: saline 110 % of control | endpoint: median survival time, dose: 8.0 micrograms/kg/injection, schedule: Q01DX009 (ip), vehicle: water 118 % of control and 102 % of control | endpoint: median survival time, dose: 16.0 micrograms/kg/injection, schedule: Q01DX009 (ip), vehicle: saline 116 % of control | endpoint: median survival time, dose: 16.0 micrograms/kg/injection, schedule: Q01DX009 (ip), vehicle: water 116 % of control | endpoint: median survival time, dose: 32.0 micrograms/kg/injection, schedule: Q01DX009 (ip), vehicle: saline 118 % of control

CCN(N=O)C(=O)N(Cc1ccccc1)Cc1ccccc1
inactive: endpoint: mean survival time, dose: 25.0 mg/kg/injection, schedule: Q01DX009 (ip), vehicle: other 94 % of control | endpoint: mean survival time, dose: 50.0 mg/kg/injection, schedule: Q01DX009 (ip), vehicle: other 94 % of control | [1] 96 % of control | [2] 96 % of control

O=c1[nH]cc(Cc2ccccc2)c(=S)[nH]1
inactive: endpoint: mean survival time, dose: 75.0 mg/kg/injection, schedule: Q01DX001 (ip), vehicle: saline with Tween-80 107 % of control | endpoint: mean survival time, dose: 150.0 mg/kg/injection, schedule: Q01DX001 (ip), vehicle: saline with Tween-80 102 % of control | endpoint: mean survival time, dose: 300.0 mg/kg/injection, schedule: Q01DX001 (ip), vehicle: saline with Tween-80 91 % of control

Nc1ccc(S(=O)(=O)c2ccc(NCC(=O)O)cc2)cc1
inactive: [8] 100 % of control | [9] 100 % of control | endpoint: mean survival time, dose: 400.0 mg/kg/injection, schedule: Q04DX003 (ip), vehicle: saline 100 % of control

O=S(=O)(Nc1ccc(Cc2ccc(NS(=O)(=O)c3ccccc3)cc2)cc1)c1ccccc1
inactive: [10] 88 % of control | [11] 90 % of control | [12] 88 % of control

CCOC(=O)C(C(C)=O)C(c1ccc(OC)cc1)C(C(C)=O)C(=O)OCC (centres undefined)
inactive: [3] 94 % of control | [4] 100 % of control | [5] 97 % of control | [6] 99 % of control | [7] 92 % of control | [13] 106 % of control

CCOC(=O)C1(C(=O)OCC)CCC2Nc3ccccc3C(=O)N21 (centres undefined)
inactive: [14] 108 % of control | [15] 108 % of control | [16] 96 % of control

CCOC(=O)Nc1cc2c(ncn2-c2ccccc2)c(N)n1
inactive: [14] 98 % of control | [15] 96 % of control

CN(C)S(=O)(=O)c1cc(Cl)ccc1NN
inactive: [4] 98 % of control | [6] 104 % of control | [13] 104 % of control

Cc1cc2c(C(C)C)c(O)c(O)c(C=O)c2c(O)c1-c1c(C)cc2c(C(C)C)c(O)c(O)c(C=O)c2c1O
inactive: endpoint: median survival time, dose: 6.25 mg/kg/injection, schedule: Q01DX009 (ip), vehicle: saline with Tween-80 110 % of control | endpoint: median survival time, dose: 12.5 mg/kg/injection, schedule: Q01DX009 (ip), vehicle: saline with Tween-80 101 % of control

CC(C)OP(=O)(OCCO)C(Cl)Cl (centres undefined)
inactive: endpoint: mean survival time, dose: 100.0 mg/kg/injection, schedule: Q01DX001 (ip), vehicle: saline 97 % of control | endpoint: mean survival time, dose: 200.0 mg/kg/injection, schedule: Q01DX001 (ip), vehicle: saline 94 % of control | endpoint: mean survival time, dose: 400.0 mg/kg/injection, schedule: Q01DX001 (ip), vehicle: saline 96 % of control

O=[N+]([O-])c1ccccc1NC(Nc1ccccc1[N+](=O)[O-])C(Cl)(Cl)Cl
inactive: [3] 98 % of control | [5] 101 % of control | [7] 101 % of control

C=C(C)C1CCC2(C(=O)O)CCC3(C)C(CCC4C5(C)CCC(OC(C)=O)C(C)(C)C5CCC43C)C12 (centres undefined)
inactive: [14] 93 % of control | [15] 93 % of control | [16] 91 % of control

Nc1c(Cl)cc2c(c1Cl)Cc1c-2cc(Br)c(N)c1Br
inactive: endpoint: mean survival time, dose: 12.5 mg/kg/injection, schedule: Q01DX001 (ip), vehicle: saline with Tween-80 100 % of control | endpoint: mean survival time, dose: 25.0 mg/kg/injection, schedule: Q01DX001 (ip), vehicle: saline with Tween-80 97 % of control | endpoint: mean survival time, dose: 50.0 mg/kg/injection, schedule: Q01DX001 (ip), vehicle: saline with Tween-80 97 % of control | [10] 101 % of control

COc1ccc2c(c1)N(CC(C)C[N+](C)(C)CCCCCCCCCCCCCCCC[N+](C)(C)CC(C)CN1c3ccccc3Sc3ccc(OC)cc31)c1ccccc1S2 (centres undefined)
inactive: [8] 91 % of control | [9] 91 % of control

Brc1sc(Br)c(Br)c1Br
inactive: [10] 109 % of control | [3] 100 % of control | [11] 95 % of control | [5] 101 % of control | [12] 102 % of control | [7] 101 % of control

CC1=CC2C(O)(CC(CO)=CC3C4C(C)(C)C4(OC(=O)c4ccccc4)C(OC(=O)c4ccccc4)C(C)C32O)C1=O (centres undefined)
inactive: endpoint: median survival time, dose: 0.25 mg/kg/injection, schedule: Q01DX009 (ip), vehicle: saline with Tween-80 95 % of control | endpoint: median survival time, dose: 0.5 mg/kg/injection, schedule: Q01DX009 (ip), vehicle: saline with Tween-80 94 % of control | endpoint: median survival time, dose: 1.0 mg/kg/injection, schedule: Q01DX009 (ip), vehicle: saline with Tween-80 94 % of control

CC1CN1CC(O)C(O)CN1CC1C (centres undefined)
inactive: endpoint: mean survival time, dose: 2.5 mg/kg/injection, schedule: Q01DX009 (ip), vehicle: saline 115 % of control

O=C(Nc1ccccc1SC(=O)c1ccccc1)c1ccccc1
inactive: endpoint: mean survival time, dose: 50.0 mg/kg/injection, schedule: Q01DX009 (ip), vehicle: saline with Tween-80 91 % of control | [3] 87 % of control | [5] 91 % of control
